How the values were obtained:
[1] = system: production of nitric oxide (NO) in RAW 264.7 cells; experiment: Inhibition of NO (nitrite) production in LPS-activated RAW 264.7 macrophages, Griess reagent; format: cell-based, mouse; conditions: Table 22, cited in b622 as nitrite/NO production result, LPS 0.3 μg/ml, 24 hours, compounds up to 10 μM, IC50 unit not given
Description: To test the inhibiting activity of the compounds prepared from above Examples 1 to 6 on the production of nitric oxide (NO) caused by activated macrophage by lipopolysaccharide (LPS), the amount of accumulated […] in the cells was determined as an indicator of NO production in the medium.
(§1) Each 200 μl of RAW 264.7 cells (ATCC, USA), a mouse macrophage cell line was seeded onto each well of 96-well microtiter plate (Nunc, Sweden) to the concentration ranging from 1×10^6 cells/ml to 5×10^6 cells/ml, and incubated in DMEM (Dulbeco's modified eagles medium) media containing 5% FBS (fetal bovine serum) at 37° C. in 5% CO2 incubator.
(§2) Various concentrations of the compounds of the present invention ranging from […] to 10 μM and LPS (Sigma, USA) in the final concentration of 0.3 μg/ml to activate the cell were treated to activate the cell simultaneously. The treated cells were cultured at 37° C. for 24 hours in 5% CO2 incubator and the cultured cells were collected after the cultivation.
And then, to the collected cell culture, an equal volume of Griess reagent (1% sulfanilamide, 0.1% naphthylethylenediamine dihydrochloride, and 2% phosphoric acid) was added and the culture was incubated at room temperature for 10 mins. The amount of nitrite production was determined by measuring the absorbance at 540 nm versus a NaNO2 standard curve. […]

[2] = system: production of TNF-alpha in RAW 264.7 cells; experiment: Inhibition of TNF-alpha production in LPS-treated RAW 264.7 cells, ELISA of culture supernatant; format: cell-based, mouse; parameters: TNF-alpha inhibition: scale not given here; conditions: Table 23, LPS 0.3 μg/ml, 24 hours, compounds up to 10 μM, IC50 unit not given
Description: To test the inhibiting activity of the compounds prepared from above Examples on the production of TNF-alpha, the concentration of TNF-alpha in the cell supernatant was measured.
as §1
as §2, with “μg/ml” for “μg/ml to activate the cell”, “activated” for “activate the”, “cultivation” for “cultivation.”
And then the concentration of TNF-alpha secreted from the culture supernatant of RAW 264.7 cells was determined by ELISA according to the manufacture's instruction (R&D Systems, Minneapolis, Minn.).
The result was shown in Table 23 (AA: IC50's<1, A: IC50's<5, B: IC50's<10, C: IC50's>10).

Row | Structure (SMILES) | NO production inhibition [1] | TNF-alpha inhibition [2]
1 | Cc1ccc(CCN2CC=C(CCC(=O)NO)C2=O)cc1 [Example 39, N-hydroxy-3-[2-oxo-1-(2-p-tolyl-ethyl)-2,5-dihydro-1H-pyrrol-3-yl]-propionamide] | AAA | AAA
2 | O=C(CCC1=CCN(CCCc2ccc3ccccc3c2)C1=O)NO [Example 56, N-hydroxy-3-[1-(3-naphthalene-2-yl-propyl)-2-oxo-2,5-dihydro-1H-pyrrol-3-yl]-propionamide] | AAA | AAA

Source: US7846963B2, “2-oxo-heterocyclic compounds and the pharmaceutical compositions comprising the same” (Korea Research Institute of Bioscience and Biotechnology, priority 2003, dated 2010)
